# Measurements published in US7618975B2, “4-arylamino-quinazolines and analogs as activators of caspases and inducers of apoptosis and the use thereof” (Myriad Pharmaceuticals, Inc., priority 2003, dated 2009).
# System: T-47D cells
# Experiment: Caspase cascade activation (N-(Ac-DEVD)-N′-ethoxycarbonyl-R110 fluorogenic substrate) in T-47D cells; further: test concentration or dose not given here
# Type: cell-based, Human
# Settings: T-47D, 24 hr; ratio of net RFU to control
row,Structure (SMILES),Caspase activity Ratio T-47D (24 hr)
1,"COc1ccc(N(C)c2nc(C)nc3ncccc23)cc1 [Example 92, (4-Methoxy-phenyl)-(2-methyl-pyrido[2,3-d]pyrimidin-4-yl)-methyl-amine]",10.1
2,"Cc1nc(N(C)c2ccc(O)cc2)c2ccccc2n1 [Example 93, (4-Hydroxy-phenyl)-(2-methyl-quinazolin-4-yl)-methyl-amine]",11.3
3,"COc1ccc(Nc2nc(C)nc3ccccc23)cn1 [Example 95, (2-Methyl-quinazolin-4-yl)-(6-methoxy-pyridin-3-yl)-amine]",1.0
4,"COc1ccc(Nc2nc(C)nc3ccccc23)c(F)c1 [Example 96, (2-Fluoro-4-methoxy-phenyl)-(2-methyl-quinazolin-4-yl)-amine]",1.0
5,"COc1ccc(N(C)c2nc(C)nc3ccccc23)c(F)c1 [Example 99, (2-Fluoro-4-methoxy-phenyl)-(2-methyl-quinazolin-4-yl)-methyl-amine]",6.9
6,"Cc1nc(N(C)c2ccc([N+](=O)[O-])cc2)c2ccccc2n1 [Example 100, (2-Methyl-quinazolin-4-yl)-(4-nitro-phenyl)-methyl-amine]",8.9
7,"Cc1nc(N(C)c2ccc(N)cc2)c2ccccc2n1 [Example 101, (4-Amino-phenyl)-(2-methyl-quinazolin-4-yl)-methyl-amine]",9.5
8,"Cc1nc(N(C)c2ccc(N=[N+]=[N-])cc2)c2ccccc2n1 [Example 102, (4-Azido-phenyl)-(2-methyl-quinazolin-4-yl)-methyl-amine]",8.8
9,"Cc1nc(N(C)c2c(Br)cc(N)cc2Br)c2ccccc2n1 [Example 103, (4-Amino-2,6-dibromo-phenyl)-(2-methyl-quinazolin-4-yl)-methyl-amine]",9.3
10,"Cc1nc(N(C)c2ccc(N)cc2Br)c2ccccc2n1 [Example 104, (4-Amino-2-bromo-phenyl)-(2-methyl-quinazolin-4-yl)-methyl-amine]",8.6
11,"Cc1nc(N(C)c2ccc(N(C)C)cc2)c2ccccc2n1 [Example 105, (4-Dimethylamino-phenyl)-(2-methyl-quinazolin-4-yl)-methyl-amine]",8.5
12,"CCOc1ccc(Nc2nc(C)nc3ccccc23)cc1 [Example 106, (4-Ethoxy-phenyl)-(2-methyl-quinazolin-4-yl)-amine]",1.1
13,"CCOc1ccc(N(C)c2nc(C)nc3ccccc23)cc1 [Example 107, (4-Ethoxy-phenyl)-(2-methyl-quinazolin-4-yl)-methyl-amine]",5.2
14,[2H]c1c([2H])c(N(C)c2nc(C)nc3ccccc23)c([2H])c([2H])c1OC [Example 108],4.8
15,"COc1ccc(N(C)c2nc(C)nc3ccc([N+](=O)[O-])cc23)cc1 [Example 109, (4-Methoxy-phenyl)-(2-methyl-6-nitro-quinazolin-4-yl)-methyl-amine]",4.6
16,"COc1ccc(N(C)c2nc(C)nc3ccc(N)cc23)cc1 [Example 110, (6-Amino-2-methyl-quinazolin-4-yl)-(4-methoxy-phenyl)-methyl-amine]",8.8
17,"COc1ccc(N(C)c2nc(C)nc3ccc(N=[N+]=[N-])cc23)cc1 [Example 111, (6-Azido-2-methyl-quinazolin-4-yl)-(4-methoxy-phenyl)-methyl-amine]",9.4
18,"COc1ccc(N(C)c2nc(C)nc3cc([N+](=O)[O-])ccc23)cc1 [Example 112, (4-Methoxy-phenyl)-methyl-(2-methyl-7-nitro-quinazolin-4-yl)-amine]",1.0
19,"COc1ccc(N(C)c2nc(C)nc3cc(N)ccc23)cc1 [Example 113, (7-Amino-2-methyl-quinazolin-4-yl)-(4-methoxy-phenyl)-methyl-amine]",3.7
20,"COc1ccc(N(C)c2nc(C)nc3cc(N=[N+]=[N-])ccc23)cc1 [Example 114, (7-Azido-2-methyl-quinazolin-4-yl)-(4-methoxy-phenyl)-methyl-amine]",7.2
21,"COc1c(Br)cc(N(C)c2nc(C)nc3ccc([N+](=O)[O-])cc23)cc1Br [Example 115, (3,5-Dibromo-4-methoxy-phenyl)-(2-methyl-6-nitro-quinazolin-4-yl)-methyl-amine]",1.0
22,"Cc1nc(N(C)c2ccc(C(=O)O)cc2)c2ccccc2n1 [Example 116, 4-(N-Methyl-N-(2-methylquinazolin-4-yl)amino)benzoic Acid]",1.0

row,Structure (SMILES),Caspase activity Ratio T-47D (24 hr)
1,"CCOC(=O)c1nc(N(C)c2ccc(OC)cc2)c2ccccc2n1 [Example 117, Ethyl 4-(N-(4-Methoxy-phenyl)-N-methylamino)quinazoline-2-carboxylate]",7.4
2,"COc1ccc(N(C)c2nc(C(=O)O)nc3ccccc23)cc1 [Example 118, 4-(N-(4-Methoxy-phenyl)-N-methylamino)quinazoline-2-carboxylic Acid]",1.0
3,"Cc1nc(N(C)c2ccc(C(=O)ON3C(=O)CCC3=O)cc2)c2ccccc2n1 [Example 119, Succinimidyl 4-(N-Methyl-N-(2-methylquinazolin-4-yl)amino)benzoic Acid Ester]",11.8
4,"COc1ccc(N(C)c2nc(SC)nc3ccccc23)cc1 [Example 120, (2-Methylthio-quinazolin-4-yl)-(4-methoxy-phenyl)-methyl-amine]",5.2
5,"COc1ccc(N(C)c2nc(N=[N+]=[N-])nc3ccccc23)cc1 [Example 121, (2-Azido-quinazolin-4-yl)-(4-methoxy-phenyl)-methyl-amine]",8.8
6,"COc1ccc(N(C)c2nc(N(C)C)nc3ccccc23)cc1 [Example 122, (2-Dimethylamino-quinazolin-4-yl)-(4-methoxy-phenyl)-methyl-amine]",8.2
7,"CNc1nc(N(C)c2ccc(OC)cc2)c2ccccc2n1 [Example 123, (2-Methylamino-quinazolin-4-yl)-(4-methoxy-phenyl)-methyl-amine]",8.2
8,"Cc1nc(N(C)c2ccc(F)cc2)c2ccccc2n1 [Example 124, (4-Fluoro-phenyl)-(2-methyl-quinazolin-4-yl)-methyl-amine]",5.2
9,"COc1ccc(N(C)c2nc(C)nc3ccccc23)nn1 [Example 125, (6-Methoxy-pyridazin-3-yl)-(2-methyl-quinazolin-4-yl)-methyl-amine]",8.3
10,"COc1cnc(N(C)c2nc(C)nc3ccccc23)cn1 [Example 126, (5-Methoxy-pyrazin-2-yl)-(2-methyl-quinazolin-4-yl)-methyl-amine]",7.6
11,"Cc1nc(Nc2ccc(O)cc2)c2ccccc2n1 [Example 127, (4-hydroxy-phenyl)-(2-methyl-quinazolin-4-yl)-amine]",1.2
12,"COc1ccc(N(C)c2nc(N(C)C)nc3ccccc23)cn1 [Example 128, (2-Dimethylamino-quinazolin-4-yl)-(6-methoxy-pyridin-3-yl)-methyl-amine]",10
13,"CNc1nc(N(C)c2ccc(OC)nc2)c2ccccc2n1 [Example 129, (2-Methylamino-quinazolin-4-yl)-(6-methoxy-pyridin-3-yl)-methyl-amine]",10
14,"C[C@H]1CC[C@@H](Nc2nc(Cl)nc3ccccc23)CC1 [Example 130, (2-Chloro-quinazolin-4-yl)-(cis-4-methylcyclohexyl)-amine]",1.2
15,"CN(c1nc(Cl)nc2ccccc12)[C@H]1CC[C@@H](C)CC1 [Example 132, (2-Chloro-quinazolin-4-yl)-(cis-4-methylcyclohexyl)-methyl-amine]",1.2
16,"CN(c1nc(Cl)nc2ccccc12)[C@H]1CC[C@H](C)CC1 [Example 133, (2-Chloro-quinazolin-4-yl)-(trans-4-methylcyclohexyl)-methyl-amine]",1.2
17,"Cc1nc(N(C)c2cnccn2)c2ccccc2n1 [Example 134, (2-Methyl-quinazolin-4-yl)-(pyrazin-2-yl)-methyl-amine]",1.2
18,"Cc1nc(Nc2ccncc2)c2ccccc2n1 [Example 135, (2-Methyl-quinazolin-4-yl)-(pyridin-4-yl)-amine]",1.2
19,"Cc1nc(N(C)c2ccncc2)c2ccccc2n1 [Example 136, (2-Methyl-quinazolin-4-yl)-(pyridin-4-yl)-methyl-amine]",1.2
20,"COc1ccc(Nc2nc(C)nc3ccccc23)nc1 [Example 137, (5-Methoxy-pyridin-2-yl)-(2-methyl-quinazolin-4-yl)-amine]",1.2
21,"COc1ccc(N(C)c2nc(C)nc3ccccc23)nc1 [Example 138, (5-Methoxy-pyridin-2-yl)-(2-methyl-quinazolin-4-yl)-methyl-amine]",5.0

# Same assay, conditions: T-47D, 48 hr; ratio of net RFU to control
row,Structure (SMILES),Caspase activity Ratio T-47D (48 hr)
1,"CCOc1ccc(Nc2nc(Cl)nc3ccccc23)cc1 [Example 94, (2-Chloro-quinazolin-4-yl)-(4-ethoxy-phenyl)-amine]",1.0
2,"CCOc1ccc(N(C)c2nc(Cl)nc3ccccc23)cc1 [Example 97, (2-Chloro-quinazolin-4-yl)-(4-ethoxy-phenyl)-methylamine]",9.0
3,"Cc1nc(N(C)c2ccc(N=[N+]=[N-])cc2)c2ccccc2n1 [Example 102, (4-Azido-phenyl)-(2-methyl-quinazolin-4-yl)-methyl-amine]",11.3
